The values below come from patent publication US8415469B2, “Compounds and methods for kinase modulation, and indications therefor” (Plexxikon Inc., priority 2005, dated 2013).

What all share (type): biochemical
Assay [1] has as its target T1, Kdr (Homo sapiens, UniProt P35968).
T1 construct: purchased Invitrogen (assay run by Invitrogen)
Put plainly: Z'-Lyte FRET kinase assay (Invitrogen), Kdr. The settings on record: read-out: IC50, activity toward kinase Kdr.

Assay [2] concerns the target T2, FGFR1 (Homo sapiens, UniProt P11362, C488A/C584S).
T2 construct: P1351.pET N6 BI-PTP FGFR A458-E765-X C488A, C584S; made in house; host or cells: E. coli (PTP1B co-expressed)
Put plainly: AlphaScreen kinase assay, FGFR1. The conditions noted are these: read-out: IC50, activity toward kinase FGFR.

For assay [3], the target named is T3, B-Raf V600E (Homo sapiens, UniProt P15056, V600E).
T3 construct: P4254. pFastBacBD-CDC37 BRAF D437-K722-X, V600E; His6 with pFastBac HT leader (TEV site) (N); made in house; host or cells: Sf9 (baculovirus; chaperone CDC37 co-expressed)
The assay is described as follows: AlphaScreen kinase assay, B-Raf V600E. The settings on record: read-out: IC50, activity toward kinase B-Raf V600E. On the technique in general: Bead proximity is the source of the signal in Alpha formats.

Assay [4] concerns the target T4, Flt1 (Homo sapiens, UniProt P17948).
T4 construct: P1826.pETN6 BI-PTP FLT1 M799-D1165-X WT; His6 (N); made in house; host or cells: E. coli (PTP1B co-expressed)
T4 sequence (P17948 with tags, fused parts or gaps): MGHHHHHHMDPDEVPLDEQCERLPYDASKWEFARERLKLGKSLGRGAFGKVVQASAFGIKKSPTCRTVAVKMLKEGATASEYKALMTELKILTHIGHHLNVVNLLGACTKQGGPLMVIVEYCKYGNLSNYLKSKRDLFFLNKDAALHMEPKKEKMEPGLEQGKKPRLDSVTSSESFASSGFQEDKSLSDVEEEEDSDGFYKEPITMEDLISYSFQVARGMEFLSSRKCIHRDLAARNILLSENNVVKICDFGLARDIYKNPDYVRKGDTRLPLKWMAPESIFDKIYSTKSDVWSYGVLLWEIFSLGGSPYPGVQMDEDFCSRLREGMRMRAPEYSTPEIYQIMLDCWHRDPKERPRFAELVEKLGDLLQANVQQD
The assay is described as follows: AlphaScreen kinase assay, Flt1. The conditions noted are these: read-out: IC50, activity toward kinase Flt1.

The target in assay [5] is T5, Kit (Homo sapiens, UniProt P10721).
T5 construct: P1332.N6 BI PTP KIT M552-K948-X COD; His6 (N); made in house; host or cells: E. coli (PTP1B co-expressed)
The assay is described as follows: AlphaScreen kinase assay, Kit. The conditions noted are these: read-out: IC50, activity toward kinase Kit.

Assay [6] addresses T6, B-Raf (Homo sapiens, UniProt P15056).
T6 construct: purchased Upstate Biotechnology
The assay is described as follows: AlphaScreen kinase assay, B-Raf. The conditions noted are these: read-out: IC50, activity toward kinase B-Raf.

Assay [7] concerns the target T7, Ret (Homo sapiens, UniProt P07949).
T7 construct: P1378.pET-SF BI-PTP RET H661-R1012 HIS; made in house
T7 sequence (P07949 with tags, fused parts or gaps): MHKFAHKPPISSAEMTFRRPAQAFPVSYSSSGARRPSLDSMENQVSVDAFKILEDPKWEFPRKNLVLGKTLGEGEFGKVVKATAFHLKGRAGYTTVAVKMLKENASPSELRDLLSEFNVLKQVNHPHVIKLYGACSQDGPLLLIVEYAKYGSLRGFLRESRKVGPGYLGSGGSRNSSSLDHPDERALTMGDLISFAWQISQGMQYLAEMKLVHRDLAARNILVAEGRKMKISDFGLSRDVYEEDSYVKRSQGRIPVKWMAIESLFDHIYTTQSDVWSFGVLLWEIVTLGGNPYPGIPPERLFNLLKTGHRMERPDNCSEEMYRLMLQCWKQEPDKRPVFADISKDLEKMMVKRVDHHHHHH
The assay is described as follows: AlphaScreen kinase assay, Ret. The settings on record: read-out: IC50, activity toward kinase Ret.

Assay [8] has as its target T8, Fms (Homo sapiens, UniProt P07333).
T8 construct: purchased Upstate Biotechnology
Put plainly: AlphaScreen kinase assay, Fms. The conditions noted are these: read-out: IC50, activity toward kinase Fms.

The target in assay [9] is T9, c-Raf-1 (Homo sapiens, UniProt P04049).
T9 construct: purchased Upstate Biotechnology
Put plainly: AlphaScreen kinase assay, c-Raf-1. The settings on record: read-out: IC50, activity toward kinase c-Raf-1.
From the text: AlphaScreen assay was used to screen additional kinases. The assay is similarly dependent on the phosphorylation of a peptide substrate. In this assay, an antibody that recognizes phosphorylated substrate is bound to an acceptor bead. The peptide substrate is attached to biotin, which binds to a donor head that contains streptavidin. Thus phosphorylated substrate is bound by antibody and streptavidin, bringing the donor and acceptor heads into close proximity when kinase is not inhibited. The donor produces singlet oxygen which results in emission from the acceptor when they are in close proximity. Conversely, when kinase is inhibited, the donor and acceptor beads are not associated and the emission from the acceptor is reduced.
AlphaScreen assays were done using compounds dissolved in DMSO to a concentration of 20 mM. The compounds were diluted accordingly to the desired final concentrations in each sample well, using 1:3 serial dilution for a total of 8 concentration points. Plates were prepared such that each kinase reaction is 20 μl in 1× kinase buffer, 5% DMSO and 10 μM ATP. After incubation of the kinase reaction for 1 hour at room temperature, 5 μl of donor beads in stop buffer (50 mM EDTA in 1× kinase buffer) was added, the sample was mixed and incubated for 20 minutes at room temperature before adding 5 μl of acceptor beads in stop buffer. The samples were incubated for 60 minutes at room temperature and the signal per well was read on AlphaQuest reader.

T3 sequence (P15056 with tags, fused parts or gaps V600E): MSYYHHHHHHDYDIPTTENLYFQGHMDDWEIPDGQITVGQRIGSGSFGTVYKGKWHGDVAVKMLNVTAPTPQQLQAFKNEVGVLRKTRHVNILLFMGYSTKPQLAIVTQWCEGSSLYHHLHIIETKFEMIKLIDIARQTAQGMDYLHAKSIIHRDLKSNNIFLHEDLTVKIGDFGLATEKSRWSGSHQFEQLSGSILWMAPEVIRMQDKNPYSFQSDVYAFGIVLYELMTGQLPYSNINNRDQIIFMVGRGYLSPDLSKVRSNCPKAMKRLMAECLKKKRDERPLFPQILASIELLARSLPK
T1 sequence (P35968 20-1356): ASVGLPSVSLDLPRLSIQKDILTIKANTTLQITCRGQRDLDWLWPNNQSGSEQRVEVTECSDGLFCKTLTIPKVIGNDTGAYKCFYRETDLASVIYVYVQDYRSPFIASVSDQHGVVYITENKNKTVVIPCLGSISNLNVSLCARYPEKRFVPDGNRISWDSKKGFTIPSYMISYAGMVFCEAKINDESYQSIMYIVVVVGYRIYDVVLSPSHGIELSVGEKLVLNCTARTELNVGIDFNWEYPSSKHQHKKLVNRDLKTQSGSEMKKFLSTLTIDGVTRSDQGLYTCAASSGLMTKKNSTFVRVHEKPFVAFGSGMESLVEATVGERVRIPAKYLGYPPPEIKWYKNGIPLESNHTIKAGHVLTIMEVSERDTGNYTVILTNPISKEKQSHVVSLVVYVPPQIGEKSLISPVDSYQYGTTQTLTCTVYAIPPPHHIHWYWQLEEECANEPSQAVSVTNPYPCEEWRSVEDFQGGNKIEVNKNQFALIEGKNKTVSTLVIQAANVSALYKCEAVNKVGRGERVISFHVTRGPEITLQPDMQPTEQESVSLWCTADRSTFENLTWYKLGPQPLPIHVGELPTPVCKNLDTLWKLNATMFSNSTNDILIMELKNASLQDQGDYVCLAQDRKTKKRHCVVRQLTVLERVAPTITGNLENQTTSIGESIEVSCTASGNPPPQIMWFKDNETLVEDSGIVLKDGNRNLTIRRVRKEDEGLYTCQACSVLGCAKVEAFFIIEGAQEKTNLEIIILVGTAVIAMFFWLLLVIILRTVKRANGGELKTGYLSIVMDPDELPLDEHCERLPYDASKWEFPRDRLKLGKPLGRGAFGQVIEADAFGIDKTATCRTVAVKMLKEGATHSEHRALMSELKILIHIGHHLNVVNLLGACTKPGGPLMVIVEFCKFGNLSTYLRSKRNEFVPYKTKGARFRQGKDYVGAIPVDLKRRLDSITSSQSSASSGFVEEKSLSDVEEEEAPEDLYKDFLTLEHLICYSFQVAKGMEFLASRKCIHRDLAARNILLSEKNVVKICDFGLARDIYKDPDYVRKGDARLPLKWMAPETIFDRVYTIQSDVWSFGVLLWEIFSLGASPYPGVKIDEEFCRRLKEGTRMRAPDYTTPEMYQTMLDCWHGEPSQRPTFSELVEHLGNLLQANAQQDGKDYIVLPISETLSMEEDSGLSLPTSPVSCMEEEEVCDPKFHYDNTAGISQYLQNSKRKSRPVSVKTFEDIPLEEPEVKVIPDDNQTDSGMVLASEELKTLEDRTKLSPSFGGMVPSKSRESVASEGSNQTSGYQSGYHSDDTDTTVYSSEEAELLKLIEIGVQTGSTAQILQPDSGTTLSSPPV
T2 sequence (P11362 458-765 C488A/C584S): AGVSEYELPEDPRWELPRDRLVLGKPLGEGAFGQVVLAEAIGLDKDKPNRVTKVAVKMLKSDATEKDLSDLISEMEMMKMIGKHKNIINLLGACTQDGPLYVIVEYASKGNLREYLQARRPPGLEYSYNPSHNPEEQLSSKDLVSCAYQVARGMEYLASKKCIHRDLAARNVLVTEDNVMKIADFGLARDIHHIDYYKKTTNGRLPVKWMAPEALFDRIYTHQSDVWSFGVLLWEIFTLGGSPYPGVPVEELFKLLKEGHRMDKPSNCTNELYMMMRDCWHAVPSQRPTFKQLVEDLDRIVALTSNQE
T5 sequence (P10721 with tags, fused parts or gaps): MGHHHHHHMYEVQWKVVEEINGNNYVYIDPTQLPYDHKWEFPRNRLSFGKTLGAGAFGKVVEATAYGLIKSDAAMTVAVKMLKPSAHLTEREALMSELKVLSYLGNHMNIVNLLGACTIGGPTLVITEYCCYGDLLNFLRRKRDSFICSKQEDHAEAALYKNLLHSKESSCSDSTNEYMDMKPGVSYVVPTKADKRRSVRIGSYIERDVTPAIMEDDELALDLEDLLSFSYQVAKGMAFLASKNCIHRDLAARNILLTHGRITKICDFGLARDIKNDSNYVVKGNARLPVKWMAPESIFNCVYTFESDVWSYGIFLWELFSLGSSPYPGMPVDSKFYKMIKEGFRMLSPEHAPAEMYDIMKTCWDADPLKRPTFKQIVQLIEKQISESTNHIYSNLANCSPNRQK
T6 sequence (P15056 whole entry): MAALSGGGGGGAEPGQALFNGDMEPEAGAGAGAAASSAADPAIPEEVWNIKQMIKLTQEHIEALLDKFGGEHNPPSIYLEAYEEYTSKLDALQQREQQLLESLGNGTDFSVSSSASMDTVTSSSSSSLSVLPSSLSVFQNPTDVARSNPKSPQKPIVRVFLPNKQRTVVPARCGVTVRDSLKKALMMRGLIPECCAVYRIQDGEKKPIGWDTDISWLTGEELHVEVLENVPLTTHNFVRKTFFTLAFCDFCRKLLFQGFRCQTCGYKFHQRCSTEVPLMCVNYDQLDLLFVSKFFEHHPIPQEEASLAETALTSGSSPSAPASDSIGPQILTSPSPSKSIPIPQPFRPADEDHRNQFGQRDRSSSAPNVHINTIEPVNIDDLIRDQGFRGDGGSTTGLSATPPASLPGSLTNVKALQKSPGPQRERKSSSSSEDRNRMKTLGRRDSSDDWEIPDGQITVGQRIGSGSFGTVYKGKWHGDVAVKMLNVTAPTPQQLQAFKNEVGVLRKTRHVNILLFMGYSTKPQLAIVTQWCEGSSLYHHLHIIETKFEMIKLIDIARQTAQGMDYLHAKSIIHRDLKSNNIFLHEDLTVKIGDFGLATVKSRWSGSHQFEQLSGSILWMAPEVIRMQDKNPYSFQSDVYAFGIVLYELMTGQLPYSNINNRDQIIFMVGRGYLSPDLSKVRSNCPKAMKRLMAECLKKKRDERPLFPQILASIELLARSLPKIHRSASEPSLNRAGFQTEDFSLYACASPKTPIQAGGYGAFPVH
T8 sequence (P07333 20-972): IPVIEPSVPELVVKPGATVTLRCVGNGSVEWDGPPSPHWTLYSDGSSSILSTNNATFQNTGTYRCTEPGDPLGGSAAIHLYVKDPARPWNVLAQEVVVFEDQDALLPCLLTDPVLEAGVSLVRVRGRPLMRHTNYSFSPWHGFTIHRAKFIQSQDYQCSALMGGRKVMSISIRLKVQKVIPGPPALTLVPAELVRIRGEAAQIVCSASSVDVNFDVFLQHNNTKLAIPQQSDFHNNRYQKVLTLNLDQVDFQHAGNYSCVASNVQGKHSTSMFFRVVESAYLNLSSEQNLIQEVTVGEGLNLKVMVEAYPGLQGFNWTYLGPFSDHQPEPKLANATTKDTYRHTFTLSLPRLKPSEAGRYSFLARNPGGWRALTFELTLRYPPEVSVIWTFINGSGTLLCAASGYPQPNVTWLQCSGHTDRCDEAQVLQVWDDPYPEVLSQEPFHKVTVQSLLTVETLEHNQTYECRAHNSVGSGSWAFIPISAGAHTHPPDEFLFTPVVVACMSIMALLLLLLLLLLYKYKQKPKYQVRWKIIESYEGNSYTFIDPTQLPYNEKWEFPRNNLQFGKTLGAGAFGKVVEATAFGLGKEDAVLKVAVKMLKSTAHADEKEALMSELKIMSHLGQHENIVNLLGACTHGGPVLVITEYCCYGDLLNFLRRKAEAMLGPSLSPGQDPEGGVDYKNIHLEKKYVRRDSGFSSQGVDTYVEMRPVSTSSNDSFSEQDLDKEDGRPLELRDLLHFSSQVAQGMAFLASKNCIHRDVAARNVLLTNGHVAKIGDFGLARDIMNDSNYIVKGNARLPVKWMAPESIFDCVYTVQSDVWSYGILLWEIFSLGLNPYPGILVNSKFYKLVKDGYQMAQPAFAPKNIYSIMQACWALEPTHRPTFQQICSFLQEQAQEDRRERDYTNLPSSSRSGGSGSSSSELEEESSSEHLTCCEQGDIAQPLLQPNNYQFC
T9 sequence (P04049 whole entry): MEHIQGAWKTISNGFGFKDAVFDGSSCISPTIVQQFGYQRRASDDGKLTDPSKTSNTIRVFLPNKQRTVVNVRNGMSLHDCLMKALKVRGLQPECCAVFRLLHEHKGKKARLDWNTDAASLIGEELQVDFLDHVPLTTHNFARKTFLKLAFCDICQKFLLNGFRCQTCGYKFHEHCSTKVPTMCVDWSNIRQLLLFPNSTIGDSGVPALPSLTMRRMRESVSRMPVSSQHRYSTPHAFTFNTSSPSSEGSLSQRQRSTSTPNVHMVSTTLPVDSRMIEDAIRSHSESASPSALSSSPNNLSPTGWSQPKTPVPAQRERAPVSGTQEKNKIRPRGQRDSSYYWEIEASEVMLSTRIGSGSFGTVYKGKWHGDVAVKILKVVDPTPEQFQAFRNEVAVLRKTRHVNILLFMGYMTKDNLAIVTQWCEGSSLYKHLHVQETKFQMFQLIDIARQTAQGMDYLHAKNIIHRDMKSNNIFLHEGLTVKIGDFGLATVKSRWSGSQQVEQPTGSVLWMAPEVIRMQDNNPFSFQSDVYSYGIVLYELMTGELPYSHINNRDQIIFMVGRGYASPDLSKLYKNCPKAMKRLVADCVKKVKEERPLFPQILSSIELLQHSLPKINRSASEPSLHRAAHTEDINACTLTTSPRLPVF

Take `O=C(c1cccc(Cl)c1F)c1c[nH]c2ncc(Br)cc12` [Compound P-0299, (5-Bromo-1H-pyrrolo[2,3-b]pyridin-3-yl)-(3-chloro-2-fluoro-phenyl)-methanone]: in assay [1], the IC50 was no more than 10 µM.

Take `COc1cccc(C(O)c2c[nH]c3ncc(Br)cc23)c1F` (stereo not drawn) [Compound P-0242]: the IC50 in assay [2], in [1] and in assay [3] was no more than 10 µM each time.

In the case of `O=[N+]([O-])c1cccc(-c2ccnc3[nH]ccc23)c1` [Compound P-0197], the IC50 in [1] was no more than 10 µM.

For the molecule `Cc1cc(C(=O)c2c[nH]c3nccc(-c4cccc(NS(C)(=O)=O)c4)c23)n(C)n1` [Compound P-0234], the IC50 in assay [1] was no more than 10 µM.

Regarding `CC(C)Cc1nc(-c2ccnc3[nH]ccc23)no1` [Compound P-0288], the IC50 in assay [1] was no more than 10 µM.

Regarding `COc1ccc(C(O)c2c[nH]c3ncccc23)cc1` (stereo not drawn) [Compound P-0268], the IC50 in assay [1] is no more than 10 µM.

In the case of `O=[N+]([O-])c1cc(S(=O)(=O)NCc2c[nH]c3ncccc23)sc1Cl` [Compound P-0777], the IC50 in [4], in assay [1] and in assay [3] was no more than 10 µM in each case.

Regarding `COc1cc(OC)cc(C(=O)c2c[nH]c3ncccc23)c1` [Compound P-0473], the IC50 in assay [2], in [1] and in [5] was no more than 10 µM throughout.

As to `c1coc(-c2c[nH]c3ncccc23)c1` [Compound P-0455], the IC50 in assay [4] and in assay [1] was no more than 10 µM in each case.

In the case of `Fc1ccc(NCc2c[nH]c3ncccc23)cc1` [Compound P-0144], the IC50 in [1] is no more than 10 µM.

For `Brc1ccnc2[nH]ccc12` [Compound P-0458], the IC50 in assay [1] was no more than 10 µM.

Take `CC(C)CNc1ccc(Cc2c[nH]c3ncccc23)cn1` [Compound P-0192]: the IC50 in [2], in assay [1], in assay [3] and in assay [6] was no more than 10 µM throughout.

As to `O=C(c1cc([N+](=O)[O-])ccc1F)c1c[nH]c2ncccc12` [Compound P-0243], the IC50 in [1] and in [3] was no more than 10 µM throughout.

For `COc1ccc(Cc2c[nH]c3nccc(-c4ccsc4)c23)cn1` [Compound P-0289], the IC50 in assay [2], in [1] and in assay [7] was no more than 10 µM throughout.

For the molecule `COc1cccc(Cc2c[nH]c3nccc(Br)c23)n1` [Compound P-0339], the IC50 in assay [2], in assay [1] and in assay [7] was no more than 10 µM each time.

Take `c1cc2cc(Nc3ccc(N4CCOCC4)cc3)cnc2[nH]1` [Compound P-0981]: the half-inhibitory concentration (IC50) in assay [1] and in assay [3] was no more than 10 µM each time.

On to `Oc1ccccc1-c1c[nH]c2ncccc12` [Compound P-0182], for which the IC50 in [1] is no more than 10 µM.

With `Cc1cc(C(=O)c2c[nH]c3ncc(-c4cccc(N)c4)cc23)no1` [Compound P-0796], the IC50 in assay [1], in assay [5] and in [7] was no more than 10 µM in each case.

Regarding `O=C(c1c(F)ccc(NS(=O)(=O)c2cccc(F)c2)c1F)c1c[nH]c2ncc(Cl)cc12` [Compound P-1583, N-[3-(5-Chloro-1H-pyrrolo[2,3-b]pyridine-3-carbonyl)-2,4-difluoro-phenyl]-3-fluoro-benzenesulfonamide], the IC50 in [2], in assay [4], in assay [3], in [5], in assay [8] and in assay [6] was no more than 10 µM each time. In [9], the IC50 was no more than 10 µM.

In the case of `COc1cccc(C(=O)c2c[nH]c3ncccc23)c1` [Compound P-0168], the half-maximal inhibitory concentration (IC50) in assay [2], in [1] and in assay [5] was no more than 10 µM throughout.

Consider `CCc1cnc2[nH]cc(C(=O)c3cccc(OC)c3)c2c1` [Compound P-0267], for which the IC50 in assay [2] and in [1] was no more than 10 µM each time.

Regarding `Cc1ccccc1-c1c[nH]c2ncccc12` [Compound P-0482], the IC50 in [1] is no more than 10 µM.

On to `Clc1cccc(-c2ccnc3[nH]ccc23)c1` [Compound P-0427], for which the IC50 in assay [1] and in assay [5] was no more than 10 µM in each case.

For orientation: IC50 means the concentration needed to halve the response being measured.
